# System: MIA PaCa-2 cells
# Experiment: In-vitro anti-proliferative activity against MIA PaCa-2 cells
# Type: cell-based
# Conditions: Homo sapiens, 72 h after dosing, intracellular ATP content
# Protocol: MIA PaCa-2 cells were seeded on a 384-well plate at 3000 cells/well. After overnight adherence culture, DMSO or the compounds serially diluted 1:5 from 5 μM were added. […] The inhibition percentage of viable cells by the compounds was calculated by comparing with the DMSO group, and the IC50 value was calculated.
row,IC50,SMILES
1,< 1000 nM,C[C@@H]1COCCN1c1cc(C2(C#N)CCC3(CC3)CC2)c2ccnc(-c3ccn[nH]3)c2n1 [Compound 32]
2,< 1000 nM,C[C@@H]1COCCN1c1cc(C2(C#N)CCC(N)CC2)c2ccnc(-c3ccn[nH]3)c2n1 (some centres unmarked) [Compound 60]
3,< 1000 nM,C[C@@H]1COCCN1c1cc(C2(C#N)CCC3(CC2)COC3)c2ccnc(-c3ccn[nH]3)c2n1 [Compound 51]
4,1000 to 5000 nM,"C[C@@H]1COCCN1c1cc(C2(C#N)CCNCC2)c2ccnc(-c3ccn[nH]3)c2n1 [Compound 37, (R)-4-(2-(3-methylmorpholino)-8-(1H-pyrazol-5-yl)-1,7-naphthyridin-4-yl)piperidine-4-carbonitrile]"
5,1000 to 5000 nM,C[C@@H]1COCCN1c1cc(C(C#N)C2CCCCC2)c2ccnc(-c3ccn[nH]3)c2n1 (some centres unmarked) [Compound 21]
6,< 1000 nM,C[C@@H]1COCCN1c1cc(C2(C#N)CCC3(CC2)CN(C)C3)c2ccnc(-c3ccn[nH]3)c2n1 [Compound 52]
7,< 1000 nM,C[C@@H]1COCCN1c1cc(C2(C#N)CCC(OC3CCCC3)CC2)c2ccnc(-c3ccn[nH]3)c2n1 (some centres unmarked) [Compound 59]
8,< 1000 nM,C[C@@H]1COCCN1c1cc(C2(C#N)CCN(c3cccc(F)c3)CC2)c2ccnc(-c3ccn[nH]3)c2n1 [Compound 48]
9,> 5000 nM,C[C@@H]1COCCN1c1cc(C2(C#N)CC2)c2ccnc(-c3ccn[nH]3)c2n1 [Compound 28]
10,1000 to 5000 nM,C[C@@H]1COCCN1c1cc(C2(C#N)CCSCC2)c2ccnc(-c3ccn[nH]3)c2n1 [Compound 30]
11,< 1000 nM,C[C@@H]1COCCN1c1cc(C2(C#N)CCC(OCC3CC3)CC2)c2ccnc(-c3ccn[nH]3)c2n1 (some centres unmarked) [Compound 56]
12,1000 to 5000 nM,C[C@@H]1COCCN1c1cc(C2(C#N)CCN(S(C)(=O)=O)CC2)c2ccnc(-c3ccn[nH]3)c2n1 [Compound 39]
13,< 1000 nM,C[C@@H]1COCCN1c1cc(C2(C#N)CCN(c3ccccc3F)CC2)c2ccnc(-c3ccn[nH]3)c2n1 [Compound 49]
14,> 5000 nM,C[C@@H]1COCCN1c1cc(C(C#N)C2CCC2)c2ccnc(-c3ccn[nH]3)c2n1 (some centres unmarked) [Compound 20]
15,< 1000 nM,C[C@@H]1COCCN1c1cc(C2(C#N)CCN(c3ccc(F)cc3)CC2)c2ccnc(-c3ccn[nH]3)c2n1 [Compound 50]
16,< 1000 nM,C[C@@H]1COCCN1c1cc(C2(C#N)CCCCCC2)c2ccnc(-c3ccn[nH]3)c2n1 [Compound 31]
17,< 1000 nM,C[C@@H]1COCCN1c1cc(C2(C#N)CCC(OC3CC3)CC2)c2ccnc(-c3ccn[nH]3)c2n1 (some centres unmarked) [Compound 57]

row,IC50,SMILES
1,< 1000 nM,CNC1CCC(C#N)(c2cc(N3CCOC[C@H]3C)nc3c(-c4ccn[nH]4)nccc23)CC1 (some centres unmarked) [Compound 61]
2,< 1000 nM,C[C@@H]1COCCN1c1cc(C2(C#N)CCC(N3CCCCC3)CC2)c2ccnc(-c3ccn[nH]3)c2n1 (some centres unmarked) [Compound 64]
3,< 1000 nM,CCN(CC)C1CCC(C#N)(c2cc(N3CCOC[C@H]3C)nc3c(-c4ccn[nH]4)nccc23)CC1 (some centres unmarked) [Compound 62]
4,1000 to 5000 nM,C[C@@H]1COCCN1c1cc(C(C#N)C2CCN(C)CC2)c2ccnc(-c3ccn[nH]3)c2n1 (some centres unmarked) [Compound 24]
5,1000 to 5000 nM,C[C@@H]1COCCN1c1cc(C2(C#N)CCN(c3ccc(F)cn3)CC2)c2ccnc(-c3ccn[nH]3)c2n1 [Compound 47]
6,< 1000 nM,C[C@@H]1COCCN1c1cc(C2(C#N)CCC(N3CCC3)CC2)c2ccnc(-c3ccn[nH]3)c2n1 (some centres unmarked) [Compound 63]
7,1000 to 5000 nM,"CC(=O)N1CCC(C#N)(c2cc(N3CCOC[C@H]3C)nc3c(-c4ccn[nH]4)nccc23)CC1 [Compound 38, (R)-1-acetyl-4-(2-(3-methylmorpholino)-8-(1H-pyrazol-5-yl)-1,7-naphthyridin-4-yl)piperidine-4-carbonitrile]"
8,< 1000 nM,CC(C)OC1CCC(C#N)(c2cc(N3CCOC[C@H]3C)nc3c(-c4ccn[nH]4)nccc23)CC1 (some centres unmarked) [Compound 55]
9,1000 to 5000 nM,C[C@@H]1COCCN1c1cc(C(C#N)CCN2CCN(C)CC2)c2ccnc(-c3ccn[nH]3)c2n1 (some centres unmarked) [Compound 19]
10,< 1000 nM,C[C@@H]1COCCN1c1cc(C2(C#N)CCC(N3CCOCC3)CC2)c2ccnc(-c3ccn[nH]3)c2n1 (some centres unmarked) [Compound 65]
11,< 1000 nM,C[C@@H]1COCCN1c1cc(C2(C#N)CCC(N3CCN(C)CC3)CC2)c2ccnc(-c3ccn[nH]3)c2n1 (some centres unmarked) [Compound 36]
12,1000 to 5000 nM,C[C@@H]1COCCN1c1cc(C(C#N)C2CCC(N(C)C)CC2)c2ccnc(-c3ccn[nH]3)c2n1 (some centres unmarked) [Compound 23]
13,1000 to 5000 nM,C[C@@H]1COCCN1c1cc(C(C#N)C2CCOCC2)c2ccnc(-c3ccn[nH]3)c2n1 (some centres unmarked) [Compound 22]
14,< 1000 nM,CCOC1CCC(C#N)(c2cc(N3CCOC[C@H]3C)nc3c(-c4ccn[nH]4)nccc23)CC1 (some centres unmarked) [Compound 54]
15,> 5000 nM,CC(=O)N1CCCC(C#N)(c2cc(N3CCOC[C@H]3C)nc3c(-c4ccn[nH]4)nccc23)C1 (some centres unmarked) [Compound 40]
16,1000 to 5000 nM,C[C@@H]1COCCN1c1cc(C2(C#N)CCC2)c2ccnc(-c3ccn[nH]3)c2n1 [Compound 26]

# The remaining lines, values behind:
row,SMILES,IC50
1,C[C@@H]1COCCN1c1cc(C2(C#N)CCN(C3CCOC3)CC2)c2ccnc(-c3ccn[nH]3)c2n1 (some centres unmarked) [Compound 73],< 1000 nM
2,"C[C@@H]1COCCN1c1cc(CC#N)c2ccnc(-c3ccn[nH]3)c2n1 [Compound 1, (R)-2-(2-(3-methylmorpholino)-8-(1H-pyrazol-5-yl)-1,7-naphthyridin-4-yl)acetonitrile]",> 5000 nM
3,C[C@@H]1COCCN1c1cc(C2(C#N)CCN(CC3CCOC3)CC2)c2ccnc(-c3ccn[nH]3)c2n1 (some centres unmarked) [Compound 84],< 1000 nM
4,C[C@@H]1COCCN1c1cc(C2(C#N)CCN(CC3CC3)CC2)c2ccnc(-c3ccn[nH]3)c2n1 [Compound 82],< 1000 nM
5,C[C@@H]1COCCN1c1cc(C2(C#N)CCN(C3COC3)CC2)c2ccnc(-c3ccn[nH]3)c2n1 [Compound 70],< 1000 nM
6,C=CC(C#N)c1cc(N2CCOC[C@H]2C)nc2c(-c3ccn[nH]3)nccc12 (some centres unmarked) [Compound 7],> 5000 nM
7,CC#CC(C#N)c1cc(N2CCOC[C@H]2C)nc2c(-c3ccn[nH]3)nccc12 (some centres unmarked) [Compound 8],> 5000 nM
8,"C[C@@H]1COCCN1c1cc(C2(C#N)CCN(CC(F)(F)F)CC2)c2ccnc(-c3ccn[nH]3)c2n1 [Compound 41, (R)-4-(2-(3-methylmorpholino)-8-(1H-pyrazol-5-yl)-1,7-naphthyridin-4-yl)-1-(2,2,2-trifluoroethyl)piperidine-4-carbonitrile]",< 1000 nM
9,CCOP(=O)(CCN1CCC(C#N)(c2cc(N3CCOC[C@H]3C)nc3c(-c4ccn[nH]4)nccc23)CC1)OCC [Compound 81],< 1000 nM
10,C[C@@H]1COCCN1c1cc(C2(C#N)CCN(C3CN(C)C3)CC2)c2ccnc(-c3ccn[nH]3)c2n1 [Compound 72],< 1000 nM
11,CCOP(=O)(CCC(C#N)c1cc(N2CCOC[C@H]2C)nc2c(-c3ccn[nH]3)nccc12)OCC (some centres unmarked) [Compound 12],1000 to 5000 nM
12,COCCN1CCC(C#N)(c2cc(N3CCOC[C@H]3C)nc3c(-c4ccn[nH]4)nccc23)CC1 [Compound 75],< 1000 nM
13,C[C@@H]1COCCN1c1cc(C2(C#N)CCN(CC(F)F)CC2)c2ccnc(-c3ccn[nH]3)c2n1 [Compound 42],< 1000 nM
14,C[C@@H]1COCCN1c1cc(C2(C#N)CCN(CC(=O)N(C)C)CC2)c2ccnc(-c3ccn[nH]3)c2n1 [Compound 77],< 1000 nM
15,CSCCC(C#N)c1cc(N2CCOC[C@H]2C)nc2c(-c3ccn[nH]3)nccc12 (some centres unmarked) [Compound 13],1000 to 5000 nM
16,C[C@@H]1COCCN1c1cc(C2(C#N)CCN(CC(N)=O)CC2)c2ccnc(-c3ccn[nH]3)c2n1 [Compound 76],< 1000 nM
17,C[C@@H]1COCCN1c1cc(C2(C#N)CCN(CCN(C)C)CC2)c2ccnc(-c3ccn[nH]3)c2n1 [Compound 78],< 1000 nM
18,CC(C)C(C#N)c1cc(N2CCOC[C@H]2C)nc2c(-c3ccn[nH]3)nccc12 (some centres unmarked) [Compound 5],1000 to 5000 nM

row,SMILES,IC50
1,CC(C)N1CCC(C#N)(c2cc(N3CCOC[C@H]3C)nc3c(-c4ccn[nH]4)nccc23)CC1 [Compound 67],< 1000 nM
2,COCCC(C#N)c1cc(N2CCOC[C@H]2C)nc2c(-c3ccn[nH]3)nccc12 (some centres unmarked) [Compound 10],1000 to 5000 nM
3,CCC(C#N)c1cc(N2CCOC[C@H]2C)nc2c(-c3ccn[nH]3)nccc12 (some centres unmarked) [Compound 4],> 5000 nM
4,C[C@@H]1COCCN1c1cc(C2(C#N)CCN(CCS(C)(=O)=O)CC2)c2ccnc(-c3ccn[nH]3)c2n1 [Compound 80],< 1000 nM
5,C[C@@H]1COCCN1c1cc(C(C#N)CC2CC2)c2ccnc(-c3ccn[nH]3)c2n1 (some centres unmarked) [Compound 6],1000 to 5000 nM
6,C[C@@H]1COCCN1c1cc(C(C#N)CCS(C)(=O)=O)c2ccnc(-c3ccn[nH]3)c2n1 (some centres unmarked) [Compound 15],> 5000 nM
7,CCN1CCC(C#N)(c2cc(N3CCOC[C@H]3C)nc3c(-c4ccn[nH]4)nccc23)CC1 [Compound 66],< 1000 nM
8,C[C@@H]1COCCN1c1cc(C(C#N)CCN)c2ccnc(-c3ccn[nH]3)c2n1 (some centres unmarked) [Compound 16],1000 to 5000 nM
9,C[C@@H]1COCCN1c1cc(C2(C#N)CCN(C3CCN(C)C3)CC2)c2ccnc(-c3ccn[nH]3)c2n1 (some centres unmarked) [Compound 74],< 1000 nM
10,C[C@@H]1COCCN1c1cc(C(C#N)CCO)c2ccnc(-c3ccn[nH]3)c2n1 (some centres unmarked) [Compound 9],1000 to 5000 nM
11,C[C@@H]1COCCN1c1cc(C2(C#N)CCN(CC3CCC3)CC2)c2ccnc(-c3ccn[nH]3)c2n1 [Compound 83],< 1000 nM
12,C[C@@H]1COCCN1c1cc(C(C#N)CCN2CCCC2)c2ccnc(-c3ccn[nH]3)c2n1 (some centres unmarked) [Compound 18],1000 to 5000 nM
13,C[C@@H]1COCCN1c1cc(C(C#N)CCN(C)C)c2ccnc(-c3ccn[nH]3)c2n1 (some centres unmarked) [Compound 17],1000 to 5000 nM
14,C[C@@H]1COCCN1c1cc(C(C#N)CC[S+](C)[O-])c2ccnc(-c3ccn[nH]3)c2n1 (some centres unmarked) [Compound 14],> 5000 nM
15,C[C@@H]1COCCN1c1cc(C2(C#N)CCN(C3CCN(C)CC3)CC2)c2ccnc(-c3ccn[nH]3)c2n1 [Compound 44],< 1000 nM
16,C[C@@H]1COCCN1c1cc(C(C#N)CC(N)=O)c2ccnc(-c3ccn[nH]3)c2n1 (some centres unmarked) [Compound 11],1000 to 5000 nM
17,C[C@@H]1COCCN1c1cc(C2(C#N)CCN(C3CCC3)CC2)c2ccnc(-c3ccn[nH]3)c2n1 [Compound 68],< 1000 nM

# From patent publication US20240317741A1, “NAPHTHYRIDINE DERIVATIVE AS ATR INHIBITOR AND METHOD FOR PREPARING SAME” (WIGEN BIOMEDICINE TECHNOLOGY (SHANGHAI) CO., LTD., priority 2021, published 2024)
